Experiment [1] can be described thus: Inhibition of soybean arachidonate 15-lipoxygenase by oxygen electrode method. Further details: species or system Glycine max.
The test system of experiment [2] is Liver microsomes. Nature of the experiment: Antioxidant activity in rat liver microsomes assessed as inhibition of lipid peroxide formation after 30 mins. In kind it is functional, Microsome. In general terms: Liver microsomes are a subcellular fraction often used to study metabolism.

The structures appear in SMILES notation. Values after ≈ are worked out from the molar mass of the structure shown.

What is called IC50 is the point on the concentration scale where inhibition reaches its midpoint. In the case of `CC(C)=CCCC(C)(O)CCc1cc(O)ccc1O` (stereo not drawn), the 50% inhibitory concentration (IC50) was determined as 3 µg/mL (≈ 11.3 µM) in experiment [1] and 0.3 µg/mL (≈ 1.13 µM) in experiment [2].

As for `CC(C)=CCCC(C)(O)/C=C/c1cc(O)ccc1O` (stereo not drawn), the IC50 in experiment [2] worked out at 0.3 µg/mL (≈ 1.14 µM).

For the compound `COc1cc2c(cc1O)C=CC(C)(CCC=C(C)C)O2` (stereo not drawn), the IC50 in experiment [1] was determined as 0.5 µg/mL (≈ 1.82 µM); in experiment [2] it was 0.1 µg/mL (≈ 0.364 µM).

On to `Cc1cc(C(C)(C)C)c(O)c(C(C)(C)C)c1` [BUTYLATED HYDROXYTOLUENE], for which the results for the IC50 in experiment [1] and in experiment [2] were above 10 µg/mL and 0.3 µg/mL (≈ 1.36 µM), respectively.

Take `CC(C)=CCCC1(C)C=Cc2cc(O)ccc2O1` (stereo not drawn) [CORDIACHROMENE A]: the IC50 was 0.2 µg/mL (≈ 0.819 µM) in experiment [1] and 0.3 µg/mL (≈ 1.23 µM) in experiment [2].

Consider `CC(C)=CCC/C(C)=C/Cc1cc(O)ccc1O` [GEROQUINOL], for which the IC50 was found to be 0.2 µg/mL (≈ 0.812 µM) in experiment [1] and 0.1 µg/mL (≈ 0.406 µM) in experiment [2].

As to `CC(=O)Oc1c(C)c(C)c2c(c1C)CCC(C)(CCC[C@H](C)CCC[C@H](C)CCCC(C)C)O2` (stereo partly drawn) [TOCOPHEROL ACETATE], the half-inhibitory concentration (IC50) in experiment [1] and in experiment [2] was above 10 µg/mL throughout.

The values above are taken from ChEMBL document CHEMBL1147304, “Antioxidant metabolites from the tunicate Amaroucium multiplicatum” (J Nat Prod, 1989).
